# Measured values from patent publication US10653698B2, “Methods of improving myocardial performance in Fontan patients using udenafil compositions” (priority 2014, dated 2020).
# How the values were obtained:
# [1] = tested on: adolescents with single ventricle physiology after Fontan palliation; assay: Vascular function testing (EndoPAT pulse amplitude tonometry, lnRHI and other EndoPAT indices); type: in vivo, human; details: for Natural Log of Reactive Hyperemia Index, Baseline measurement: day 1; for Natural Log of Reactive Hyperemia Index, Follow-up measurement: post-medication, day 5
# Text: Pulse amplitude tonometry (PAT), a FDA-approved method for assessing vascular function, is increasingly being used as an alternative measure of endothelium-dependent dilation in response to reactive hyperemia and flow-mediated dilation (FMD). The PAT device records digital pulse wave amplitude (PWA) using fingertip plethysmography. PWA can be measured continuously during three phases: a quiet baseline period, 5-min forearm occlusion, and reactive hyperemia following cuff release. Unlike FMD, PAT testing is not dependent upon a highly skilled technician and post-test analysis is largely automated. Most importantly, at least one longitudinal study has shown that PAT measures of endothelial function predict CVD events over a 6-year follow-up period. These significant advantages may make PAT testing suitable for clinical practice if prognostic significance and reliability can be verified.
# The primary outcome of vascular function was determined according to an endothelial pulse amplitude tonometry (PAT) index as determined by the EndoPAT® device (Itamar Medical, Caesarea, Israel).
# Table 16 summarizes the results for the key outcome from the vascular function testing—natural log of Reactive Hyperemia Index (lnRHI) by treatment group. Out of the 30 subjects enrolled in the treatment arms of the trial, 27 subjects had paired measurements with an acceptable quality (with QC score equal to 3 (the best) or 2). The structure of the table is similar to the one for exercise variables.
# Table 17 reports change scores only for secondary EndoPAT outcomes (RHI, Framingham RHI etc; top panel) and other EndoPAT indices.
# [2] = cited from earlier work
# ED patients = details: 50 mg or 75 mg once daily for 12 wk; cited from earlier work
structure (smiles),measurement,setting,value
CCCOc1ccc(S(=O)(=O)NCCC2CCCN2C)cc1-c1nc2c(CCC)nn(C)c2c(=O)[nH]1 (stereo not drawn) [udenafil],"Natural Log of Reactive Hyperemia Index, Difference, FU − BL",[1]; 37.5 mg daily,0.03 ± 0.47
same,"AUC2max_o: Area under the curve to Max-Occlusion (ratio to baseline), FU − BL","[1]; 37.5 mg daily, N 6",−0.23 ± 2.74
same,"AUC2max_oc: Area under the curve to Max-Occlusion/Control, FU − BL","[1]; 37.5 mg daily, N 6",−0.93 ± 4.37
same,"AUCall_o: Area under the curve all-Occlusion (ratio to baseline), FU − BL","[1]; 37.5 mg daily, N 6",−0.01 ± 2.73
same,"AUCall_oc: Area under the curve all-Occlusion/Control, FU − BL","[1]; 37.5 mg daily, N 6",−1.34 ± 6.42
same,"Avg2Max_o: average upto max-Occlusion (ratio to baseline), FU − BL","[1]; 37.5 mg daily, N 6",−0.12 ± 0.28
same,"Avg2Max_oc: average up to max-Occlusion/Control, FU − BL","[1]; 37.5 mg daily, N 6",−0.35 ± 1.01
same,"Avgall_o: average all-Occlusion (ratio to baseline), FU − BL","[1]; 37.5 mg daily, N 6",0.02 ± 0.27
same,"Avgall_oc: average all -Occlusion/Control, FU − BL","[1]; 37.5 mg daily, N 6",−0.10 ± 0.66
same,"Framingham RHI, FU − BL","[1]; 37.5 mg daily, N 6",−0.00 ± 0.58
same,"Reactive Hyperemia Index, FU − BL","[1]; 37.5 mg daily, N 6",0.03 ± 0.84
same,"Natural Log of Reactive Hyperemia Index, Baseline measurement",[1]; 37.5 mg daily,0.48 ± 0.31
same,"Natural Log of Reactive Hyperemia Index, Follow-up measurement",[1]; 37.5 mg daily,0.51 ± 0.26
same,"Natural Log of Reactive Hyperemia Index, Difference, FU − BL",[1]; 37.5 mg twice daily,−0.07 ± 0.17
same,"AUC2max_o: Area under the curve to Max-Occlusion (ratio to baseline), FU − BL","[1]; 37.5 mg twice daily, N 6",0.09 ± 1.45
same,"AUC2max_oc: Area under the curve to Max-Occlusion/Control, FU − BL","[1]; 37.5 mg twice daily, N 6",−1.19 ± 1.84
same,"AUCall_o: Area under the curve all-Occlusion (ratio to baseline), FU − BL","[1]; 37.5 mg twice daily, N 6",−0.69 ± 2.17
same,"AUCall_oc: Area under the curve all-Occlusion/Control, FU − BL","[1]; 37.5 mg twice daily, N 6",−1.19 ± 2.00
same,"Avg2Max_o: average upto max-Occlusion (ratio to baseline), FU − BL","[1]; 37.5 mg twice daily, N 6",0.15 ± 0.19
same,"Avg2Max_oc: average up to max-Occlusion/Control, FU − BL","[1]; 37.5 mg twice daily, N 6",−0.33 ± 0.26
same,"Avgall_o: average all-Occlusion (ratio to baseline), FU − BL","[1]; 37.5 mg twice daily, N 6",−0.08 ± 0.24
same,"Avgall_oc: average all -Occlusion/Control, FU − BL","[1]; 37.5 mg twice daily, N 6",−0.13 ± 0.22
same,"Framingham RHI, FU − BL","[1]; 37.5 mg twice daily, N 6",−0.17 ± 0.19
same,"Reactive Hyperemia Index, FU − BL","[1]; 37.5 mg twice daily, N 6",−0.12 ± 0.30
same,"Natural Log of Reactive Hyperemia Index, Baseline measurement",[1]; 37.5 mg twice daily,0.60 ± 0.30
same,"Natural Log of Reactive Hyperemia Index, Follow-up measurement",[1]; 37.5 mg twice daily,0.53 ± 0.29
same,"Natural Log of Reactive Hyperemia Index, Difference, FU − BL",[1]; 87.5 mg daily,0.07 ± 0.22
same,"AUC2max_o: Area under the curve to Max-Occlusion (ratio to baseline), FU − BL","[1]; 87.5 mg daily, N 5",−1.26 ± 4.89
same,"AUC2max_oc: Area under the curve to Max-Occlusion/Control, FU − BL","[1]; 87.5 mg daily, N 5",3.03 ± 2.49
same,"AUCall_o: Area under the curve all-Occlusion (ratio to baseline), FU − BL","[1]; 87.5 mg daily, N 5",1.66 ± 5.96
same,"AUCall_oc: Area under the curve all-Occlusion/Control, FU − BL","[1]; 87.5 mg daily, N 5",1.88 ± 3.25
same,"Avg2Max_o: average upto max-Occlusion (ratio to baseline), FU − BL","[1]; 87.5 mg daily, N 5",0.10 ± 0.69
same,"Avg2Max_oc: average up to max-Occlusion/Control, FU − BL","[1]; 87.5 mg daily, N 5",0.17 ± 0.43
same,"Avgall_o: average all-Occlusion (ratio to baseline), FU − BL","[1]; 87.5 mg daily, N 5",0.14 ± 0.67
same,"Avgall_oc: average all -Occlusion/Control, FU − BL","[1]; 87.5 mg daily, N 5",0.16 ± 0.36
same,"Framingham RHI, FU − BL","[1]; 87.5 mg daily, N 5",0.04 ± 0.36
same,"Reactive Hyperemia Index, FU − BL","[1]; 87.5 mg daily, N 5",0.12 ± 0.34
same,"Natural Log of Reactive Hyperemia Index, Baseline measurement",[1]; 87.5 mg daily,0.41 ± 0.25
same,"Natural Log of Reactive Hyperemia Index, Follow-up measurement",[1]; 87.5 mg daily,0.45 ± 0.31
same,"Natural Log of Reactive Hyperemia Index, Difference, FU − BL",[1]; 87.5 mg twice daily,−0.03 ± 0.20
same,"AUC2max_o: Area under the curve to Max-Occlusion (ratio to baseline), FU − BL","[1]; 87.5 mg twice daily, N 4",−0.51 ± 1.64
same,"AUC2max_oc: Area under the curve to Max-Occlusion/Control, FU − BL","[1]; 87.5 mg twice daily, N 4",0.16 ± 1.08
same,"AUCall_o: Area under the curve all-Occlusion (ratio to baseline), FU − BL","[1]; 87.5 mg twice daily, N 4",0.60 ± 2.95
same,"AUCall_oc: Area under the curve all-Occlusion/Control, FU − BL","[1]; 87.5 mg twice daily, N 4",0.17 ± 4.30
same,"Avg2Max_o: average upto max-Occlusion (ratio to baseline), FU − BL","[1]; 87.5 mg twice daily, N 4",0.03 ± 0.36
same,"Avg2Max_oc: average up to max-Occlusion/Control, FU − BL","[1]; 87.5 mg twice daily, N 4",0.24 ± 0.23
same,"Avgall_o: average all-Occlusion (ratio to baseline), FU − BL","[1]; 87.5 mg twice daily, N 4",0.09 ± 0.33
same,"Avgall_oc: average all -Occlusion/Control, FU − BL","[1]; 87.5 mg twice daily, N 4",0.05 ± 0.45
same,"Framingham RHI, FU − BL","[1]; 87.5 mg twice daily, N 4",0.00 ± 0.20
same,"Reactive Hyperemia Index, FU − BL","[1]; 87.5 mg twice daily, N 4",0.01 ± 0.38
same,"Natural Log of Reactive Hyperemia Index, Baseline measurement",[1]; 87.5 mg twice daily,0.49 ± 0.12
same,"Natural Log of Reactive Hyperemia Index, Follow-up measurement",[1]; 87.5 mg twice daily,0.40 ± 0.29
same,"Natural Log of Reactive Hyperemia Index, Difference, FU − BL",[1]; 125 mg daily,−0.10 ± 0.38
same,"AUC2max_o: Area under the curve to Max-Occlusion (ratio to baseline), FU − BL","[1]; 125 mg daily, N 6",0.37 ± 2.71
same,"AUC2max_oc: Area under the curve to Max-Occlusion/Control, FU − BL","[1]; 125 mg daily, N 6",1.80 ± 1.18
same,"AUCall_o: Area under the curve all-Occlusion (ratio to baseline), FU − BL","[1]; 125 mg daily, N 6",−0.28 ± 3.98
same,"AUCall_oc: Area under the curve all-Occlusion/Control, FU − BL","[1]; 125 mg daily, N 6",−1.84 ± 7.21
same,"Avg2Max_o: average upto max-Occlusion (ratio to baseline), FU − BL","[1]; 125 mg daily, N 6",0.07 ± 0.86
same,"Avg2Max_oc: average up to max-Occlusion/Control, FU − BL","[1]; 125 mg daily, N 6",−0.32 ± 1.28
same,"Avgall_o: average all-Occlusion (ratio to baseline), FU − BL","[1]; 125 mg daily, N 6",−0.03 ± 0.49
same,"Avgall_oc: average all -Occlusion/Control, FU − BL","[1]; 125 mg daily, N 6",−0.20 ± 0.84
same,"Framingham RHI, FU − BL","[1]; 125 mg daily, N 6",−0.13 ± 0.51
same,"Reactive Hyperemia Index, FU − BL","[1]; 125 mg daily, N 6",−0.21 ± 0.78
same,"Natural Log of Reactive Hyperemia Index, Baseline measurement",[1]; 125 mg daily,0.63 ± 0.37
same,"Natural Log of Reactive Hyperemia Index, Follow-up measurement",[1]; 125 mg daily,0.52 ± 0.34
same,"Natural Log of Reactive Hyperemia Index, Difference, FU − BL",[1]; All subjects (treatment arms),−0.02 ± 0.30
same,"Natural Log of Reactive Hyperemia Index, Baseline measurement",[1]; All subjects (treatment arms),0.52 ± 0.28
same,"Natural Log of Reactive Hyperemia Index, Follow-up measurement",[1]; All subjects (treatment arms),0.49 ± 0.28
same,"AUC2max_o: Area under the curve to Max-Occlusion (ratio to baseline), FU − BL","[1]; All subjects, N 27",−0.26 ± 2.75
same,"AUC2max_oc: Area under the curve to Max-Occlusion/Control, FU − BL","[1]; All subjects, N 27",0.51 ± 2.91
same,"AUCall_o: Area under the curve all-Occlusion (ratio to baseline), FU − BL","[1]; All subjects, N 27",0.18 ± 3.54
same,"AUCall_oc: Area under the curve all-Occlusion/Control, FU − BL","[1]; All subjects, N 27",−0.60 ± 4.93
same,"Avg2Max_o: average upto max-Occlusion (ratio to baseline), FU − BL","[1]; All subjects, N 27",0.04 ± 0.51
same,"Avg2Max_oc: average up to max-Occlusion/Control, FU − BL","[1]; All subjects, N 27",−0.16 ± 0.79
same,"Avgall_o: average all-Occlusion (ratio to baseline), FU − BL","[1]; All subjects, N 27",0.02 ± 0.40
same,"Avgall_oc: average all -Occlusion/Control, FU − BL","[1]; All subjects, N 27",−0.06 ± 0.54
same,"Framingham RHI, FU − BL","[1]; All subjects, N 27",−0.06 ± 0.39
same,"Reactive Hyperemia Index, FU − BL","[1]; All subjects, N 27",−0.04 ± 0.56
same,Improvement in natural log of Reactive Hyperemia Index,"[1]; some patients, baseline to day 5",≤ 9.75%
same,T1/2,[2]; in vivo,11 to 13 h
same,Tmax,[2]; in vivo,1.0 to 1.5 h
same,half-life,[2]; in vivo,7.3 to 12.1 h
same,time to steady state,"[2]; multiple dosing, previous studies",5 days
same,erectile function,ED patients,significantly improved
